Data from the supplement of paper PMC10307832.

Columns and labels:
Experiment in all cases: relative viability (nuclei count vs DMSO), 5 days (fraction); higher = more cells survive
[1] = compound: Cn1cnc2c(F)c(Nc3ccc(Br)cc3Cl)c(C(=O)NOCCO)cc21 [Selumetinib] + CS(=O)(=O)N1CCN(Cc2cc3nc(-c4cccc5[nH]ncc45)nc(N4CCOCC4)c3s2)CC1 [Pictilisib] (partner 1 µM)
In short: (§1)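 The day after seeding in 1536-well plates, lung cancer cell lines were treated by pin tool with a single drug, or with a fixed anchor-drug dose together with five library-drug doses (not always all listed) in √10 steps. After 5 days, a combined fix-and-stain solution (final 0.05% Triton X-100, 1% formaldehyde, 1 ug/ml Hoechst) was added. Nuclei counted on 4× images gave relative viability as treated counts over vehicle counts, reported as the median of duplicate plates.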

[2] = compound: CC1(C)CCC(CN2CCN(c3ccc(C(=O)NS(=O)(=O)c4ccc(NCC5CCOCC5)c([N+](=O)[O-])c4)c(Oc4cnc5[nH]ccc5c4)c3)CC2)=C(c2ccc(Cl)cc2)C1 [Venetoclax] + O=C(c1cc(Cc2n[nH]c(=O)c3ccccc23)ccc1F)N1CCN(C(=O)C2CC2)CC1 [Olaparib] (partner 8 µM)
In short: as §1

[3] = compound: CC1(C)CCC(CN2CCN(c3ccc(C(=O)NS(=O)(=O)c4ccc(NCC5CCOCC5)c([N+](=O)[O-])c4)c(Oc4cnc5[nH]ccc5c4)c3)CC2)=C(c2ccc(Cl)cc2)C1 [Venetoclax] + CCNC(=O)c1noc(-c2cc(C(C)C)c(O)cc2O)c1-c1ccc(CN2CCOCC2)cc1 [Luminespib] (partner 0.01 µM)
In short: as §1

[4] = compound: Cn1cnc2c(F)c(Nc3ccc(Br)cc3Cl)c(C(=O)NOCCO)cc21 [Selumetinib] + NC(=O)Nc1cc(-c2cccc(F)c2)sc1C(=O)N[C@H]1CCCNC1 [AZD7762] (partner 0.2 µM)
In short: as §1

| Cell Line | relative viability ([1]; first compound 0.02 µM) | relative viability ([1]; first compound 0.06325 µM) | relative viability ([1]; first compound 0.2 µM) | relative viability ([1]; first compound 0.6325 µM) | relative viability ([2]; first compound 0.01 µM) | relative viability ([2]; first compound 0.03162 µM) | relative viability ([2]; first compound 0.1 µM) | relative viability ([2]; first compound 0.3162 µM) | relative viability ([2]; first compound 1 µM) | relative viability ([3]; first compound 0.01 µM) | relative viability ([3]; first compound 0.03162 µM) | relative viability ([3]; first compound 0.1 µM) | relative viability ([3]; first compound 0.3162 µM) | relative viability ([3]; first compound 1 µM) | relative viability ([4]; first compound 0.02 µM) | relative viability ([4]; first compound 0.06325 µM) | relative viability ([4]; first compound 0.2 µM) | relative viability ([4]; first compound 0.6325 µM) |
| --- | --- | --- | --- | --- | --- | --- | --- | --- | --- | --- | --- | --- | --- | --- | --- | --- | --- | --- |
| NCI-H1993 | 0.945 | 0.815 | 0.866 | 0.807 | 1.03 | 0.952 | 0.986 | 0.99 | 1.08 | 0.881 | 0.843 | 0.917 | 0.896 | 0.777 | 0.842 | 0.733 | 0.634 | 0.666 |
| NCI-H1793 | 0.288 | 0.286 | 0.314 | 0.28 | 0.867 | 0.892 | 0.883 | 0.806 | 0.712 | 0.152 | 0.194 | 0.164 | 0.19 | 0.162 | 0.408 | 0.394 | 0.406 | 0.297 |
| NCI-H2087 | 0.552 | 0.405 | 0.329 | 0.267 | 0.611 | 0.736 | 0.45 | 0.567 | 0.692 | 0.154 | 0.138 | 0.175 | 0.18 | 0.135 | 1.1 | 0.993 | 1.16 | 0.525 |
| NCI-H1355 | 0.369 | 0.409 | 0.315 | 0.296 | 0.772 | 0.815 | 0.774 | 0.734 | 0.757 | 0.748 | 0.759 | 0.667 | 0.782 | 0.778 | 0.818 | 0.711 | 0.748 | 0.565 |
| RERF-LC-KJ | 0.527 | 0.476 | 0.44 | 0.504 | 0.883 | 0.839 | 0.934 | 0.935 | 0.847 | 1.19 | 1.19 | 1.22 | 1.19 | 1.08 | 0.992 | 0.977 | 0.892 | 0.906 |
| NCI-H727 | 0.309 | 0.214 | 0.155 | 0.234 | 0.758 | 0.801 | 0.803 | 0.836 | 0.641 | 0.465 | 0.439 | 0.209 | 0.303 | 0.357 | 0.455 | 0.428 | 0.322 | 0.427 |
| NCI-H1734 | 0.486 | 0.363 | 0.438 | 0.438 | 0.598 | 0.656 | 0.662 | 0.634 | 0.634 | 0.184 | 0.188 | 0.244 | 0.204 | 0.224 | 0.512 | 0.5 | 0.495 | 0.515 |
| NCI-H2126 | 0.477 | 0.434 | 0.408 | 0.416 | 0.85 | 0.936 | 0.838 | 0.915 | 0.913 | 0.866 | 0.95 | 0.991 | 0.961 | 0.87 | 1.03 | 0.981 | 0.987 | 0.903 |
| NCI-H1792 | 0.238 | 0.197 | 0.196 | 0.144 | 0.286 | 0.463 | 0.384 | 0.561 | 0.339 | 0.381 | 0.492 | 0.329 | 0.374 | 0.375 | 0.571 | 0.447 | 0.417 | 0.393 |
| NCI-H23 | 0.484 | 0.344 | 0.352 | 0.29 | 0.311 | 0.26 | 0.367 | 0.376 | 0.304 | 0.222 | 0.226 | 0.215 | 0.228 | 0.22 | 0.265 | 0.315 | 0.222 | 0.195 |
| EMC-BAC-2 | 0.556 | 0.53 | 0.523 | 0.492 | 0.503 | 0.554 | 0.5 | 0.497 | 0.471 | 1.09 | 1.16 | 1.23 | 1.21 | 1.1 | 1.16 | 1.11 | 0.913 | 1.08 |
| NCI-H647 | 0.422 | 0.384 | 0.173 | 0.318 | 0.521 | 0.698 | 0.424 | 0.564 | 0.535 | 0.167 | 0.206 | 0.124 | 0.123 | 0.151 | 0.466 | 0.441 | 0.366 | 0.271 |
| NCI-H1975 | 0.259 | 0.242 | 0.211 | 0.204 | 0.754 | 0.821 | 0.74 | 0.811 | 0.674 | 0.241 | 0.212 | 0.191 | 0.172 | 0.251 | 0.69 | 0.599 | 0.662 | 0.527 |
| ChaGo-K-1 | 0.619 | 0.838 | 0.55 | 0.824 | 0.341 | 0.48 | 0.437 | 0.5 | 0.439 | 0.459 | 0.709 | 0.637 | 0.628 | 0.59 | 0.865 | 0.845 | 0.905 | 0.899 |
